Our source for the IC50 and inhibition values is ChEMBL document CHEMBL5528035, “Design, Synthesis, and Biological Evaluation for First GPX4 and CDK Dual Inhibitors” (J Med Chem, 2024).

One assay has as its system MDA-MB-231. Put plainly: cells. The following applies: Homo sapiens, MDA-MB-231, 48 h.
For assay [1], the target named is CDK2/Cyclin A2 (Homo sapiens) (UniProt P24941+P20248). Put plainly: Inhibition of CDK2/CyclinA2 (unknown origin) at 100 nM preincubated for 15 mins followed by substrate and ATP addition incubated for 10 mins by ADP-glo luminescent assay relative to control. The class given is protein-complex assay. The following applies: time 25.0 min.
For another assay, the system named is HCT-116. Kind of assay: cells. The following applies: Homo sapiens, HCT-116, 48 h.
Assay [2] deals with CDK6/cyclin D3 (Homo sapiens) (UniProt P30281+Q00534). Kind of assay: Inhibition of CDK6/CyclinD3 (unknown origin) at 100 nM preincubated for 15 mins followed by substrate and ATP addition incubated for 10 mins by ADP-glo luminescent assay relative to control. It is filed as protein-complex assay. The following applies: time 25.0 min.
The subject of another assay is A549. Kind of assay: cells. The following applies: Homo sapiens, A549, 48 h.
The next assay concerns HepG2. Put plainly: cells. The following applies: Homo sapiens, HepG2, 48 h.

Description for A549: Antiproliferative activity against human A549 cells assessed as inhibition of cell growth incubated for 48 hrs by CCK-8 assay
Description for HCT-116: Antiproliferative activity against human HCT-116 cells assessed as inhibition of cell growth incubated for 48 hrs by CCK-8 assay
Description for HepG2: Antiproliferative activity against human HepG2 cells assessed as inhibition of cell growth incubated for 48 hrs by CCK-8 assay
Description for MDA-MB-231: Antiproliferative activity against human MDA-MB-231 cells assessed as inhibition of cell growth incubated for 48 hrs by CCK-8 assay

Consider `O=C(CCn1cc(COc2ccc(N(C(=O)CCl)C(C(=O)NCCc3ccccc3)c3cccs3)cc2Cl)nn1)NCCCO/N=C1/C(=C2/C(=O)Nc3cc(Br)c(Br)cc32)Nc2ccccc21` (stereo not drawn), for which the IC50 with MDA-MB-231, in the assay on HCT-116, with A549 and in the assay on HepG2 was over 10 µM throughout. Moreover, the figures for the inhibition in assay [1] and in assay [2] were 4.02% and 4.65%, respectively.

`O=C(CCn1cc(COc2ccc(N(C(=O)CCl)C(C(=O)NCCc3ccccc3)c3cccs3)cc2Cl)nn1)O/N=C1/C(=C2/C(=O)Nc3ccccc32)Nc2cc(Br)ccc21` (stereo not drawn): the IC50 in the assay with MDA-MB-231, in the assay on HCT-116, with A549 and in the assay with HepG2 was over 10 µM throughout. The inhibition in assay [1] was determined as 5.41%; in assay [2], 14.7%.

In the case of `O=C(CCn1cc(COc2ccc(N(C(=O)CCl)C(C(=O)NCCc3ccccc3)c3cccs3)cc2Cl)nn1)O/N=C1/C(=C2/C(=O)Nc3ccccc32)Nc2ccccc21` (stereo not drawn), the half-inhibitory concentration (IC50) stood at 7.89 µM in the assay on MDA-MB-231, 7.45 µM with HCT-116, 7.72 µM in the assay with A549 and 8.18 µM in the assay with HepG2. The inhibition in assay [1] stood at 8.89%; in assay [2], 46.3%.

Regarding `COc1ccc2c(c1)NC(=C1\C(=O)Nc3ccccc31)/C2=N/OC(=O)CCn1cc(COc2ccc(N(C(=O)CCl)C(C(=O)NCCc3ccccc3)c3cccs3)cc2Cl)nn1` (stereo not drawn), the IC50 with MDA-MB-231 was 3.88 µM; with HCT-116, 4.03 µM; in the assay with A549, 4.6 µM; with HepG2 it was 7.88 µM. For the same compound, the inhibition in assay [1] was found to be 12.6%; in assay [2], 47%.

`O=C(CCn1cc(COc2ccc(N(C(=O)CCl)C(C(=O)NCCc3ccccc3)c3cccs3)cc2Cl)nn1)NCCCO/N=C1/C(=C2/C(=O)Nc3cc(F)ccc32)Nc2ccccc21` (stereo not drawn): the IC50 in the assay on MDA-MB-231 worked out at 3.96 µM; in the assay on HCT-116, 2.91 µM; in the assay with A549, 6.6 µM; with HepG2, 4.12 µM. The inhibition came to 28.9% in assay [1] and 36.8% in assay [2].

Turning to `O=C(CCn1cc(COc2ccc(N(C(=O)CCl)C(C(=O)NCCc3ccccc3)c3cccs3)cc2Cl)nn1)NCCCO/N=C1/C(=C2/C(=O)Nc3ccc(Br)cc32)Nc2ccccc21` (stereo not drawn), the concentration for half-maximal inhibition (IC50) is over 10 µM in the assay with MDA-MB-231, 8.77 µM with HCT-116, over 10 µM with A549 and over 10 µM in the assay with HepG2. In addition, the inhibition in assay [1] was found to be 15.5%; in assay [2] it was 21.3%.

On to `O=C(CCn1cc(COc2ccc(N(C(=O)CCl)C(C(=O)NCCc3ccccc3)c3cccs3)cc2Cl)nn1)O/N=C1/C(=C2/C(=O)Nc3ccccc32)Nc2cc(F)ccc21` (stereo not drawn), for which the IC50 in the assay with MDA-MB-231 was 7.12 µM; in the assay on HCT-116, 6.81 µM; in the assay on A549, 6.69 µM; in the assay with HepG2, 8.19 µM. Further, the inhibition amounted to 9.85% in assay [1] and 29.7% in assay [2].

In the case of `O=C(CCn1cc(COc2ccc(N(C(=O)CCl)C(C(=O)NCCc3ccccc3)c3cccs3)cc2Cl)nn1)O/N=C1/C(=C2/C(=O)Nc3ccccc32)Nc2cc(Cl)ccc21` (stereo not drawn), the IC50 in the assay with MDA-MB-231 was found to be 7.78 µM; in the assay with HCT-116, 7.32 µM; with A549, 6.27 µM; in the assay with HepG2, 7.51 µM. For the same compound, the inhibition in assay [1] was 8.53%; in assay [2], 37.1%.

For `O=C(CCn1cc(COc2ccc(N(C(=O)CCl)C(C(=O)NCCc3ccccc3)c3cccs3)cc2Cl)nn1)NCCCO/N=C1/C(=C2/C(=O)Nc3ccc(F)cc32)Nc2ccccc21` (stereo not drawn), the IC50 in the assay with MDA-MB-231 was determined as 1.64 µM; in the assay on HCT-116, 1.99 µM; in the assay with A549 it was 1.88 µM; in the assay on HepG2, 4.92 µM. Besides, the values for the inhibition in assay [1] and in assay [2] were 3.17% and 36.2%, respectively.

`O=C(CCn1cc(COc2ccc(N(C(=O)CCl)C(C(=O)NCCc3ccccc3)c3cccs3)cc2Cl)nn1)NCCCO/N=C1/C(=C2/C(=O)Nc3ccccc32)Nc2ccccc21` (stereo not drawn): the IC50 worked out at 1.2 µM with MDA-MB-231, 1.49 µM with HCT-116, 2.85 µM in the assay on A549 and 2.02 µM with HepG2. Besides, the inhibition came out at 22.1% in assay [1] and 52.1% in assay [2].

Turning to `O=C(CCn1cc(COc2ccc(N(C(=O)CCl)C(C(=O)NCCc3ccccc3)c3cccs3)cc2Cl)nn1)O/N=C1/C(=C2/C(=O)Nc3ccccc32)Nc2cc(Cl)c(Cl)cc21` (stereo not drawn), the IC50 in the assay on MDA-MB-231, with HCT-116, in the assay with A549 and in the assay with HepG2 was over 10 µM each time. In addition, the inhibition in assay [1] amounted to 5.9%; in assay [2] it was 10.4%.

In the case of `O=C(CCn1cc(COc2ccc(N(C(=O)CCl)C(C(=O)NCCc3ccccc3)c3cccs3)cc2Cl)nn1)NCCCO/N=C1/C(=C2/C(=O)Nc3cc(Cl)c(Cl)cc32)Nc2ccccc21` (stereo not drawn), the IC50 in the assay with MDA-MB-231, with HCT-116, in the assay with A549 and in the assay on HepG2 was over 10 µM in each case. Besides, the values for the inhibition in assay [1] and in assay [2] were 14% and 12.8%, respectively.

As for `O=C(CCn1cc(COc2ccc(N(C(=O)CCl)C(C(=O)NCCc3ccccc3)c3cccs3)cc2Cl)nn1)O/N=C1/C(=C2/C(=O)Nc3ccccc32)Nc2cc(F)c(F)cc21` (stereo not drawn), the IC50 with MDA-MB-231, with HCT-116, with A549 and in the assay with HepG2 was over 10 µM throughout. In addition, the inhibition was determined as 10.5% in assay [1] and 24.4% in assay [2].

`O=C(CCn1cc(COc2ccc(N(C(=O)CCl)C(C(=O)NCCc3ccccc3)c3cccs3)cc2Cl)nn1)NCCCO/N=C1/C(=C2/C(=O)Nc3cc(Cl)ccc32)Nc2ccccc21` (stereo not drawn): the half-inhibitory concentration (IC50) was 7.46 µM with MDA-MB-231, 7.17 µM in the assay with HCT-116, 9.09 µM in the assay with A549 and 9 µM in the assay with HepG2. For the same compound, the inhibition in assay [1] was found to be 31%; in assay [2] it was 38.5%.

Turning to `COc1ccc2c(c1)/C(=C1/Nc3ccccc3/C1=N\OCCCNC(=O)CCn1cc(COc3ccc(N(C(=O)CCl)C(C(=O)NCCc4ccccc4)c4cccs4)cc3Cl)nn1)C(=O)N2` (stereo not drawn), the half-maximal inhibitory concentration (IC50) stood at 2.01 µM with MDA-MB-231, 1.96 µM in the assay on HCT-116, 4.09 µM in the assay with A549 and 4.66 µM with HepG2. Besides, the inhibition in assay [1] amounted to 26.6%; in assay [2], 40%.

Consider `COc1ccc2c(c1)C(=N\OC(=O)CCn1cc(COc3ccc(N(C(=O)CCl)C(C(=O)NCCc4ccccc4)c4cccs4)cc3Cl)nn1)/C(=C1/C(=O)Nc3ccccc31)N2` (stereo not drawn), for which the IC50 is 4.65 µM in the assay with MDA-MB-231, 6.97 µM with HCT-116, 7.04 µM in the assay on A549 and 8.36 µM in the assay on HepG2. In addition, the inhibition in assay [1] came out at 14.1%; in assay [2], 22%.

Regarding `O=C(CCn1cc(COc2ccc(N(C(=O)CCl)C(C(=O)NCCc3ccccc3)c3cccs3)cc2Cl)nn1)NCCCO/N=C1/C(=C2/C(=O)Nc3cc(Br)ccc32)Nc2ccccc21` (stereo not drawn), the IC50 in the assay with MDA-MB-231 was 8.69 µM; in the assay with HCT-116, over 10 µM; with A549, over 10 µM; in the assay on HepG2, over 10 µM. Besides, the inhibition in assay [1] was 22.4%; in assay [2] it was 28.3%.

As for `O=C(CCn1cc(COc2ccc(N(C(=O)CCl)C(C(=O)NCCc3ccccc3)c3cccs3)cc2Cl)nn1)O/N=C1/C(=C2/C(=O)Nc3ccccc32)Nc2ccc(Br)cc21` (stereo not drawn), the IC50 in the assay on MDA-MB-231, with HCT-116, in the assay on A549 and in the assay on HepG2 was over 10 µM in each case. Further, the inhibition in assay [1] was determined as 13.3%; in assay [2], 34.9%.

In the case of `O=C(CCn1cc(COc2ccc(N(C(=O)CCl)C(C(=O)NCCc3ccccc3)c3cccs3)cc2Cl)nn1)NCCCO/N=C1/C(=C2/C(=O)Nc3cc(F)c(F)cc32)Nc2ccccc21` (stereo not drawn), the IC50 in the assay on MDA-MB-231 was over 10 µM; with HCT-116 it was 9.63 µM; in the assay on A549, 8.32 µM; with HepG2, over 10 µM. In addition, the inhibition was found to be 1.12% in assay [1] and 16.1% in assay [2].

Consider `O=C(CCn1cc(COc2ccc(N(C(=O)CCl)C(C(=O)NCCc3ccccc3)c3cccs3)cc2Cl)nn1)NCCCO/N=C1/C(=C2/C(=O)Nc3ccc(Cl)cc32)Nc2ccccc21` (stereo not drawn), for which the IC50 in the assay with MDA-MB-231 was determined as 5.65 µM; in the assay with HCT-116, 4.25 µM; in the assay on A549, 2.67 µM; in the assay with HepG2, 4.83 µM. Besides, the values for the inhibition in assay [1] and in assay [2] were 28.1% and 39.4%, respectively.

Regarding `O=C(CCn1cc(COc2ccc(N(C(=O)CCl)C(C(=O)NCCc3ccccc3)c3cccs3)cc2Cl)nn1)O/N=C1/C(=C2/C(=O)Nc3ccccc32)Nc2ccc(Cl)cc21` (stereo not drawn), the 50% inhibitory concentration (IC50) in the assay with MDA-MB-231 was determined as 5.25 µM; in the assay on HCT-116, 4.44 µM; with A549 it was 5.15 µM; in the assay on HepG2, 7.16 µM. For the same compound, the inhibition in assay [1] turned out to be 13.5%; in assay [2] it was 40.4%.

For `O=C(CCn1cc(COc2ccc(N(C(=O)CCl)C(C(=O)NCCc3ccccc3)c3cccs3)cc2Cl)nn1)O/N=C1/C(=C2/C(=O)Nc3ccccc32)Nc2cc(Br)c(Br)cc21` (stereo not drawn), the concentration for half-maximal inhibition (IC50) in the assay on MDA-MB-231, in the assay on HCT-116, with A549 and in the assay on HepG2 was over 10 µM throughout. For the same compound, the inhibition in assay [1] is 1.46%; in assay [2] it was 9.29%.

With `O=C(CCn1cc(COc2ccc(N(C(=O)CCl)C(C(=O)NCCc3ccccc3)c3cccs3)cc2Cl)nn1)O/N=C1/C(=C2/C(=O)Nc3ccccc32)Nc2ccc(F)cc21` (stereo not drawn), the IC50 in the assay on MDA-MB-231 came to 3.24 µM; in the assay on HCT-116, 4.25 µM; in the assay with A549, 6.37 µM; in the assay with HepG2, 5.58 µM. For the same compound, the inhibition in assay [1] worked out at 19.6%; in assay [2], 21.4%.
